# Laboratory results from patent US8283373B2, “Inhibitors of cytosolic phospholipase A2” (Pfizer Inc., priority 2005, dated 2012).
# How the values were obtained:
# [1] = system: experimental autoimmune encephalomyelitis (EAE); assay: Experimental autoimmune encephalomyelitis (EAE) model of multiple sclerosis; format: in vivo, mouse
# Method: Six groups of B6 mice were immunized with MOG/CFA and injected with pertussis toxin to induce experimental autoimmune encephalomyelitis (EAE), an animal model of Multiple sclerosis. Three groups of mice were treated with vehicle, 4-{3-[1-benzhydryl-5-chloro-2-(2-{[(2,6-dimethylbenzyl)sulfonyl]amino}ethyl)-1H-indol-3-yl]propyl}benzoic acid (Compound A), or 4-{2-[1-benzhydryl-5-chloro-2-(2-{[(3,4-dichlorobenzyl)sulfonyl]amino}-ethyl)-1H-indol-3-yl]ethoxy}benzoic acid (Compound B) from the day of Immunization (orally, 100 mg/kg, twice/day). Another three groups of mice were treated with vehicle, Compound A or Compound B starting on the day of EAE onset (day 15) (orally, 100 mg/kg, twice/day). […] The results are shown in the Table below, wherein mean clinical score is a mean of clinical evaluation of each animal for that particular day.
# Animals are Scored as Follows:
# • 0—no clinical signs of EAE (no paralysis) • 1—paralysis of tail • 2—paralysis of tail and partial hind leg paralysis • 3—paralysis of tail and complete hind leg paralysis • 4—paralysis of tail, complete hind leg paralysis and a partial front leg paralysis • 5—moribund animal (all four limbs paralyzed, lack of responsiveness, these mice were immediately euthanized).
# In addition, the compounds of Examples 14 and 25 were also found to be efficacious in the mouse experimental autoimmune encephalomyelitis (EAE) model of multiple sclerosis. As shown by the data in the Table below, these compounds led to a delayed onset of disease and reduced severity of disease when administered orally in doses as low as 2.5 mg/kg.
# [2] = system: primary dopaminergic neurons; assay: MPP+ exposure in dopaminergic neurons; format: cell-based, rat; details: 10 μM MPP+ 60 minutes, control 100, MPP+ alone 56.6
# Method: Primary dopaminergic neurons were isolated from E15 rat embryos as described in Pong K., et al., (1997) J. Neurochem. 69 986-994. Briefly, the ventral mesencephalon was isolated and tissue was pooled in ice-cold phosphate buffer saline (PBS) without Ca^2+ and Mg^2+. The tissue was transferred to an enzymatic dissociation media containing 20 IU/ml papain in Earle's balanced salt solution (Worthington Biochemical, Freehold, N.J.) and incubated for 30 minutes at 37° C. After enzymatic dissociation, the papain solution was aspirated and the tissue mechanically triturated with a fire-polished Pasteur pipette in complete media [Neurobasal Medium with B-27 supplement (Gibco, Grand Island, N.Y.), penicillin/streptomycin, aphidicolin, glutamate] containing 2,000 IU/ml DNase and 10 mg/ml ovomucoid protease inhibitor. Single-cell suspensions in complete media were plated on pre-coated poly-L-ornithine/laminin 24-well plates (Becton-Dickinson, Bedford, Mass.) at a density of 5.0×10^5 cells/well. Cells were maintained for one week prior to experimentation.
# Cultures were exposed to 10 μM MPP^+ for 60 minutes. After the exposure, fresh media was exchanged and fresh compound was added. Dopaminergic neuron viability was determined 24 hours later by measuring ^3H-dopamine uptake as described in Pong et al., 1997, supra.
# CFA-induced hyperalgesia = CFA-induced hyperalgesia model; format: in vivo, rat; details: 6 hours after CFA
# Description: The sensitivity of peripheral sensory neurons can be enhanced such that they respond to both noxious and non-noxious stimuli resulting in chronic pain (See Julius, D. et al., Nature. 2001; 413:203; Woolf, C. J., et al., Science. […]; 288:1765). Prostaglandins and leukotrienes at the site of inflammation and tissue damage are partially responsible for this potentiation of the pain response. Prostaglandins promote the phosphorylation of ion channels, increasing the excitability and lowering the pain threshold of sensory neurons. Analogously, leukotriene B4 and related arachidonate metabolites of 12-LO bind to and activate the capsaicin receptor (or VR1) ion channel on neurons that respond to heat and low pH (See Piomelli D., TRENDS in Pharmacological Sciences, January 2001; 22(1):17-29). The effect of the compound of Example 10 was measured in the CFA-induced hyperalgesia model, and lipid mediator production was measured at peripheral and central sites.
# The animals were dosed with vehicle, the compound of Example 10, naproxen or celecoxib, and then CFA was immediately injected into the hind footpad. To assess hyperalgesia, pressure was applied to the left hind paw at a slow and constant rate using a digital force gauge. Measurements were taken at 0 and 6 hours. The application of the force was stopped when the animal vocalized, or struggled. Readings were taken prior to dosing and CFA injection, and repeated six hours after the CFA injection. Two independent experiments were run and the data were analyzed separately.
# The paws were collected at the end of each experiment (6 hours) and the levels of PGE2, LTB4 and TXB2 were measured in the exudates.
smiles,measurement,setting,value
"O=C(O)c1ccc(OCCc2c(CCNS(=O)(=O)Cc3ccc(Cl)c(Cl)c3)n(C(c3ccccc3)c3ccccc3)c3ccc(Cl)cc23)cc1 [Compound B, 4-{2-[1-benzhydryl-5-chloro-2-(2-{[(3,4-dichlorobenzyl)sulfonyl]amino}-ethyl)-1H-indol-3-yl]ethoxy}benzoic acid]",mean clinical score,"[1]; 100 mg/kg orally twice/day from EAE onset (day 15), day 11 after immunization",0
same,mean clinical score,"[1]; 100 mg/kg orally twice/day from EAE onset (day 15), day 12 after immunization",0
same,mean clinical score,"[1]; 100 mg/kg orally twice/day from EAE onset (day 15), day 13 after immunization",0
same,mean clinical score,"[1]; 100 mg/kg orally twice/day from EAE onset (day 15), day 14 after immunization",0
same,mean clinical score,"[1]; 100 mg/kg orally twice/day from EAE onset (day 15), day 15 after immunization",0.10
same,mean clinical score,"[1]; 100 mg/kg orally twice/day from EAE onset (day 15), day 16 after immunization",0.45
same,mean clinical score,"[1]; 100 mg/kg orally twice/day from EAE onset (day 15), day 17 after immunization",0.80
same,mean clinical score,"[1]; 100 mg/kg orally twice/day from EAE onset (day 15), day 18 after immunization",1.05
same,mean clinical score,"[1]; 100 mg/kg orally twice/day from EAE onset (day 15), day 19 after immunization",1.10
same,mean clinical score,"[1]; 100 mg/kg orally twice/day from EAE onset (day 15), day 20 after immunization",1.00
same,mean clinical score,"[1]; 100 mg/kg orally twice/day from EAE onset (day 15), day 21 after immunization",1.20
same,mean clinical score,"[1]; 100 mg/kg orally twice/day from EAE onset (day 15), day 22 after immunization",1.10
same,mean clinical score,"[1]; 100 mg/kg orally twice/day from EAE onset (day 15), day 23 after immunization",1.40
same,mean clinical score,"[1]; 100 mg/kg orally twice/day from EAE onset (day 15), day 24 after immunization",1.35
same,mean clinical score,"[1]; 100 mg/kg orally twice/day from EAE onset (day 15), day 25 after immunization",1.25
same,mean clinical score,"[1]; 100 mg/kg orally twice/day from EAE onset (day 15), day 26 after immunization",1.40
same,mean clinical score,"[1]; 100 mg/kg orally twice/day from EAE onset (day 15), day 27 after immunization",1.55
same,mean clinical score,"[1]; 100 mg/kg orally twice/day from day of immunization (Day 1), day 11 after immunization",0
same,mean clinical score,"[1]; 100 mg/kg orally twice/day from day of immunization (Day 1), day 12 after immunization",0
same,mean clinical score,"[1]; 100 mg/kg orally twice/day from day of immunization (Day 1), day 13 after immunization",0
same,mean clinical score,"[1]; 100 mg/kg orally twice/day from day of immunization (Day 1), day 14 after immunization",0
same,mean clinical score,"[1]; 100 mg/kg orally twice/day from day of immunization (Day 1), day 15 after immunization",0
same,mean clinical score,"[1]; 100 mg/kg orally twice/day from day of immunization (Day 1), day 16 after immunization",0
same,mean clinical score,"[1]; 100 mg/kg orally twice/day from day of immunization (Day 1), day 17 after immunization",0.06
same,mean clinical score,"[1]; 100 mg/kg orally twice/day from day of immunization (Day 1), day 18 after immunization",0.06
same,mean clinical score,"[1]; 100 mg/kg orally twice/day from day of immunization (Day 1), day 19 after immunization",0.11
same,mean clinical score,"[1]; 100 mg/kg orally twice/day from day of immunization (Day 1), day 20 after immunization",0.39
same,mean clinical score,"[1]; 100 mg/kg orally twice/day from day of immunization (Day 1), day 21 after immunization",0.44
same,mean clinical score,"[1]; 100 mg/kg orally twice/day from day of immunization (Day 1), day 22 after immunization",0.50
same,mean clinical score,"[1]; 100 mg/kg orally twice/day from day of immunization (Day 1), day 23 after immunization",0.67
same,mean clinical score,"[1]; 100 mg/kg orally twice/day from day of immunization (Day 1), day 24 after immunization",0.56
same,mean clinical score,"[1]; 100 mg/kg orally twice/day from day of immunization (Day 1), day 25 after immunization",0.56
same,mean clinical score,"[1]; 100 mg/kg orally twice/day from day of immunization (Day 1), day 26 after immunization",0.56
same,mean clinical score,"[1]; 100 mg/kg orally twice/day from day of immunization (Day 1), day 27 after immunization",0.72
same,prevention of EAE / reduction of clinical severity,"[1]; administered from the time of immunization, or in mice with or close to EAE",can prevent EAE
same,"dopaminergic neuron viability (3H-dopamine uptake), Avg.",[2]; 0.3 μM,74
same,"dopaminergic neuron viability (3H-dopamine uptake), Avg.",[2]; 1 μM,71.6
same,"dopaminergic neuron viability (3H-dopamine uptake), Avg.",[2]; 3 μM,78.6
same,"dopaminergic neuron viability (3H-dopamine uptake), Avg.",[2]; 10 μM,83.2
"COc1ccc2cc([C@H](C)C(=O)O)ccc2c1 [naproxen, reference compound]",LTB4 levels in paw exudates,CFA-induced hyperalgesia,increased
same,TXB2 levels in paw exudates,CFA-induced hyperalgesia,greater than the inhibition with celecoxib
same,PGE2 levels in paw exudates,CFA-induced hyperalgesia; Example 10 at 25 mg/kg,significantly inhibited
